Test results taken from US8481738B2, “Gonadotropin-releasing hormone receptor antagonists and methods relating thereto” (Neurocrine Biosciences, Inc., priority 2007, dated 2013).

What follows are compounds tested against T1, human GnRH receptor (Homo sapiens, UniProt P30968) (assay: Peptide competition radioligand binding displacement assay, human GnRH receptor membranes). Settings: one or more of the peptide competition human receptor binding assays.
T1 construct: expressed in transfected cells; host or cells: RBL cells, stably transfected (in general)
T1 sequence (P30968 1-328): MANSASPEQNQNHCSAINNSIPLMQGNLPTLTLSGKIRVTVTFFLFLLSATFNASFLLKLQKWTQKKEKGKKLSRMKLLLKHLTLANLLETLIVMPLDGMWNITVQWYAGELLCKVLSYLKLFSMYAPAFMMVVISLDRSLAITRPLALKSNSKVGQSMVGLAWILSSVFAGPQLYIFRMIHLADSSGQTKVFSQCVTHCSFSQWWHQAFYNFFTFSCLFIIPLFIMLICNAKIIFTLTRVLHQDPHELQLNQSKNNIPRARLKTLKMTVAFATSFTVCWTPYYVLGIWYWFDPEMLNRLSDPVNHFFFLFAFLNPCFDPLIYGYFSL
Procedure: cDNA's of human, rhesus macaque, rabbit, dog and rat GnRH receptors are cloned into pcDNA3.1 (+) (Invitrogen). Full length sequences of all receptors are confirmed by DNA sequencing. HEK 293, CHO, COS-7, or rat basophilic leukemia (RBL) cells are stably transfected with human, rat, or macaque GnRH receptors and high expressing single cell clones (Bmax≧0.4 pMol/mg membrane protein) are isolated and maintained in Dulbecco's Modified Eagles Medium (DMEM) with following supplements: 10 mM HEPES; 2 mM L-glutamine; 1 mM Sodium Pyruvate; 50 U/mL penicillin, 50 μg/mL streptomycin; 10% Heat-inactivated Fetal Bovine Serum and 200 μg/mL Geneticin (G-418-Sulfate). Non-essential amino acids (0.1 mM) (Irvine Scientific; Santa Ana, Calif.) are included in the RBL cell media.
In general, initial peptide radioligand binding assays are carried out using membranes from stably transfected RBL cells. RBL stable clones are found to more consistently express high levels of GnRH receptor and are therefore used for subsequent binding studies as well as Ca^++ flux and inositol phosphate accumulation assays. Transiently transfected COS-7 cells are used for preparation of membranes containing GnRH receptors from multiple species (as well as those of mutant receptors for other studies) because of the convenience for rapidly analyzing multiple receptors.
HEK293 cells stably transfected with the human GnRH receptor are grown for two days after achieving confluence then are harvested by striking tissue culture flasks against a firm surface. Cells are collected by centrifugation at 1000 g for 5 minutes. Cell pellets are resuspended in 5% sucrose and homogenized using a polytron homogenizer for two 15 second homogenization steps. Cell homogenates are then centrifuged for 5 minutes at 3000 g to remove nuclei and the supernatant subsequently centrifuged for 30 minutes at 44,000 g to collect the membrane fraction. The membrane pellet is resuspended in GnRH binding buffer (10 mM HEPES, pH 7.5, 150 mM NaCl and 0.1% BSA) and aliquots immediately snap-frozen in liquid nitrogen and stored at −80° C. Protein content of the membrane suspension is determined using the Bio-Rad protein assay kit (Bio-Rad).
RBL cells stably transfected with the human GnRH receptor are grown to 80% confluency prior to harvesting. The cells are incubated at 37° C. for 10 min in 0.5 mM EDTA/PBS (Ca^++, Mg^++ free), and are dislodged from the plate by gentle rapping of the flasks. Cells are collected and pelleted by centrifugation at 1000 g for 5 minutes. Cell pellets are resuspended in buffer (DPBS supplemented with 10 mM MgCl2, 2 mM EGTA, pH=7.4), and cell lysis is performed using a pressure cell and applying N2 at a pressure of 900 psi for 30 min at 4° C. Unbroken cells and larger debris were removed by centrifugation at 1200 g for 10 min at 4° C. The cell membrane supernatant is then centrifuged at 45,000 g and the resulting membrane pellet is resuspended in assay buffer and homogenized on ice using a tissue homogenizer. Protein concentrations are determined using the Coomassie Plus Protein Reagent kit. Membranes are aliquoted and stored at −80° C. until ready for use.
COS-7 cells transiently transfected with GnRH receptors from different species (human, macaque, dog, rabbit, rat) or mutant GnRH receptors are prepared by bulk electroporation. COS-7 cells are obtained from American Type Cell Culture (Manassas, Va.) and are maintained in Dulbeccos's modified Eagle's medium (DMEM) (MediaTech Inc., Herndon, Va.) containing 10% fetal bovine serum, 10 mM HEPES, 2 mM L-glutamine, 1 mM sodium pyruvate, 50 U/mL penicillin, 50 μg/mL streptomycin. COS-7 cells are seeded in 500 cm^2 tissue culture plates and grown to confluency prior to cell transfection. […]

Ki, ≤ 100 nM:
CCOC(=O)CCCOc1cc(Cl)c(-c2cnc(C(F)(F)F)cc2C#N)cc1C(=O)N(C)c1ccccc1OC [43-1, 4-{5-Chloro-4-(4-cyano-6-trifluoromethyl-pyridin-3-yl)-2-[(2-methoxy-phenyl)-methyl-carbamoyl]-phenoxy}-butyric acid ethyl ester]
COc1cc(Cl)c(-c2cnc(C(F)(F)F)cc2C#N)cc1C(=O)N(C)c1c(OC)cccc1OC [39-3]
COCCN(C)C(=O)c1cc(-c2cnc(C(F)(F)F)cc2C#N)c(Cl)cc1OCCCC(=O)O [34-24]
COc1ccccc1N(C)C(=O)c1cc(-c2cnc(C(F)(F)F)cc2C#N)c(Cl)cc1OCCN1CCCC1=O [42-1, 4-Chloro-5-(4-cyano-6-trifluoromethyl-pyridin-3-yl)-N-(2-methoxy-phenyl)-N-methyl-2-[2-(2-oxo-pyrrolidin-1-yl)-ethoxy]-benzamide]
CN(C(=O)c1ccc(Cl)c(-c2nc3c(F)c(F)c(F)c(F)c3cc2C#N)c1)c1ccccc1OCCCC(=O)O [33-3]
COc1ccccc1N(C)C(=O)c1ccc(Cl)c(-c2cnc(C)cc2C)c1 [2-9]
COc1ccccc1N(C)C(=O)c1cc(-c2cnc(C(F)(F)F)cc2C#N)c(Cl)cc1OCCOc1ccccn1 [42-8]
COc1ccccc1N(C)C(=O)c1cc(-c2cnc(C(F)(F)F)cc2C#N)c(Cl)cc1OCCCOc1ccccn1 [42-15]
Cc1cc(Cl)c(-c2cc(C(=O)N(C)c3c(C)cccc3C)ccc2Cl)cn1 [2-19]
COCc1ccccc1N(C)C(=O)c1cc(-c2cnc(C(F)(F)F)cc2C#N)c(Cl)cc1OCCCC(=O)O [34-5]
CN(C(=O)c1ccc(Cl)c(-c2ccc(Cl)cc2C#N)c1)c1ccccc1OCCCC(=O)O [5-6]
CN(C(=O)c1cc(-c2cnc(C(F)(F)F)cc2C#N)c(Cl)cc1OCCCC(=O)O)c1ccccn1 [34-18]
Cc1cc(C#N)ncc1-c1cc(C(=O)N(C)c2c(C)cccc2C)c(OCCCC(=O)O)cc1Cl [22-8]
CN(C(=O)c1ccc(Cl)c(-c2nc3ccccc3cc2C#N)c1)c1ccccc1OCCCO [10-2, 4-chloro-3-(3-cyano-quinolin-2-yl)-N-[2-(3-hydroxy-propoxy)-phenyl]-N-methyl-benzamide]
COc1cc(Cl)c(-c2cnc(C(F)(F)F)cc2C#N)cc1C(=O)N(C)c1c(F)cccc1OC [39-4]
COc1cc(C)c(-c2cc(C(=O)N(C)c3cccc(Cl)c3OC)ccc2Cl)cn1 [2-45]
COc1ccccc1N(C)C(=O)c1cc(-c2cnc(C(F)(F)F)cc2C#N)c(Cl)cc1OCCCc1ccn(C)n1 [42-14]
COc1ccccc1N(C)C(=O)c1cc(-c2cnc(C(F)(F)F)cc2C#N)c(Cl)cc1OCCCc1cn[nH]c1 [42-7]
COc1ccccc1N(C)C(=O)c1cc(-c2cnc(C(F)(F)F)cc2C#N)c(Cl)cc1OCCNC(=O)C(F)(F)F [47-4]
CN(C(=O)c1ccc(Cl)c(-c2cnc(C(F)(F)F)cc2C#N)c1)c1ccccc1OCCc1n[nH]c(=O)[nH]1 [40-1, 4-Chloro-3-(4-cyano-6-trifluoromethyl-pyridin-3-yl)-N-methyl-N-{2-[2-(5-oxo-4,5-dihydro-1H-[1,2,4]triazol-3-yl)-ethoxy]-phenyl}-benzamide]
COc1ccccc1N(C)C(=O)c1ccc(Cl)c(-c2ccc(C(F)(F)F)nc2)c1 [2-11]
COc1ccccc1N(C)C(=O)c1ccc(Cl)c(-c2ncc(Cl)cc2Cl)c1 [19-2, 4-chloro-3-(3,5-dichloro-pyridin-2-yl)-N-(2-methoxy-phenyl)-N-methyl-benzamide]
CN(C(=O)c1ccc(Cl)c(-c2nc3c(F)cccc3cc2C#N)c1)c1ccccc1OCCCC(=O)O [33-2]
CN(C(=O)c1ccc(Cl)c(-c2ncc(Cl)cc2Cl)c1)c1cccc(F)c1 [19-3]
COc1ccccc1N(C)C(=O)c1cc(-c2cnc(C(F)(F)F)cc2C#N)c(Cl)cc1OCCCC(=O)OC(C)OC(=O)OC(C)C (centres unmarked) [37-4, 4-{5-chloro-4-(4-cyano-6-trifluoromethyl-pyridin-3-yl)-2-[(2-methoxy-phenyl)-methyl-carbamoyl]-phenoxy}-butyric acid 1-isopropoxycarbonyloxy-ethyl ester]
Cc1cc(C(F)(F)F)ncc1-c1cc(C(=O)N(C)c2ccccc2OCCCC(=O)O)ccc1Cl [4-6]
COc1ccccc1N(C)C(=O)c1ccc(Cl)c(-c2ccc(C#N)nc2)c1 [2-2, 4-chloro-3-(6-cyano-pyridin-3-yl)-N-(2-methoxy-phenyl)-N-methyl-benzamide]
Cc1cc(C(F)(F)F)nc(=O)n1-c1cc(C(=O)N(C)c2ccccc2F)ccc1Cl [30-16]
CC(C)OC(=O)OC(C)OC(=O)CCOc1ccccc1N(C)C(=O)c1ccc(Cl)c(-c2cnc(C(F)(F)F)cc2C#N)c1 (centres unmarked) [37-2, 3-(2-{[4-Chloro-3-(4-cyano-6-trifluoromethyl-pyridin-3-yl)-benzoyl]-methyl-amino}-phenoxy)-propionic acid 1-isopropoxycarbonyloxy-ethyl ester]
COC(=O)c1ccccc1N(C)C(=O)c1cc(-c2cnc(C(F)(F)F)cc2C#N)c(Cl)cc1OC [39-2]
Cc1cc(Cl)c(-c2cc(C(=O)N(C)c3ccccc3C)ccc2Cl)cn1 [2-16]
COc1cccc(C)c1N(C)C(=O)c1ccc(Cl)c(-c2cnc(C(F)(F)F)cc2C)c1 [2-33]
Cc1cccc(OCCC(=O)O)c1N(C)C(=O)c1ccc(Cl)c(-c2ccc(C(F)(F)F)cc2C#N)c1 [11-8]
Cc1cccc(C)c1N(C)C(=O)c1cc(-c2cnc(C(F)(F)F)cc2C#N)c(Cl)cc1OCCCC(=O)O [22-4]
COc1cccc(C)c1N(C)C(=O)c1ccc(Cl)c(-n2c(C)cc(C(F)(F)F)nc2=O)c1 [30-10]
CN(C(=O)c1ccc(Cl)c(-c2cnc(C(F)(F)F)cc2C#N)c1)c1ccccc1OCCNC(=O)NS(C)(=O)=O [41-1, 4-Chloro-3-(4-cyano-6-trifluoromethyl-pyridin-3-yl)-N-{2-[2-(3-methylsulfonyl-ureido)-ethoxy]-phenyl}-N-methyl-benzamide]
COc1cc(Cl)c(-c2cnc(C(F)(F)F)cc2C#N)cc1C(=O)N(C)c1c(F)cccc1F [39-6]
CN(C(=O)c1ccc(Cl)c(-c2cnc(C(F)(F)F)cc2C#N)c1)c1ccccc1OCC(C)(C)C(=O)O [52-1, 3-(2-{[4-Chloro-3-(4-cyano-6-trifluoromethyl-pyridin-3-yl)-benzoyl]-methyl-amino}-phenoxy)-2,2-dimethyl-propionic acid]
